Experiments:
serum testosterone = assay: Phase 1/2a open-label study of i.m. abiraterone decanoate depot in advanced prostate cancer: serum testosterone; format: in vivo, human; settings: for serum testosterone reduction from baseline: day 168
Experimental: This is a Phase 1/2a, Open-label, Multicenter Study of Intramuscular Abiraterone Decanoate Depot in Patients with Advanced Prostate Cancer.
Formulations and dosing regimen: The formulation used in the study (abiraterone decanoate for intramuscular [i.m.] injection) is a solution formulation of abiraterone decanoate at a concentration of 180 mg/mL and will be provided as a 10 mL vial containing 990 mg of abiraterone decanoate in 5.5 mL of solution. See further details of the formulations in Example 2 (for each milliliter: Abiraterone Decanoate, about 180 mg/mL; Benzyl Alcohol, about 100 mg/mL; Benzyl Benzoate, about 200 mg/mL; and Corn oil, q.s. to 1 mL). Abiraterone Decanoate will be administered as an i.m. injection every 84 days (±3 days). Dose escalation will proceed with a modified Fibonacci sequence. Based on emerging data, intermediate doses may be evaluated.
Study Design: This is a Phase 1/2a, Open-label, Multicenter Study of Intramuscular Abiraterone Decanoate Depot in Patients with Advanced Prostate Cancer. In Phase 1, all patients will receive i.m. Abiraterone Decanoate depot in 84-day treatment cycles combined with daily oral prednisone or dexamethasone. In Phase 2a, patients will be randomized 1:1 and treated with i.m. Abiraterone Decanoate depot in 84-day treatment cycles in combination with dexamethasone (Arm A) or abiraterone acetate daily+prednisone (Arm B). In both Phases, patients will undergo scheduled periodic assessments of serum testosterone levels. Participants may continue treatment until they meet any discontinuation criteria outlined in the protocol.
Phase 1—Dose Escalation: Eligible patients with metastatic castration-sensitive prostate cancer (mCSPC) and patients with metastatic castration-resistant prostate cancer (mCRPC) will be enrolled. The initial dose of Abiraterone Decanoate to be administered is based on findings from completed non-human primate toxicology and pharmacology studies; dose escalation will proceed in a modified Fibonacci sequence. A Safety Review Committee (SRC) will be established to review available cohort safety data, and pharmacokinetic and pharmacodynamic findings (particularly testosterone suppression) to recommend a decision on dose escalation including whether intermediate doses should be explored.
Pharmacodynamic Analysis: Determination of Prostate Specific Antigen (PSA), serum testosterone, dehydroepiandrosterone (DHEA), dehydroepiandrosterone sulfate (DHEA-S), androstenedione, dihydrotestosterone (DHT), progesterone, cortisol, adrenocorticotropic hormone (ACTH), corticosterone, 11-dexoycorticosterone (11-DOC) and 11-deoxycortisol.
Based on the available data, the recommended dose for Phase 2 is about 1260 mg abiraterone decanoate once every three months (12 weeks). All cohorts 1 and 2 in this clinical study were treated with prednisone, 5 mg orally once or twice daily; and all cohorts 3-5 were treated with dexamethasone, 0.5 mg orally once daily. The results shown herein for these cohorts should be understood accordingly.
The median baseline T level, calculated from mean of screening and Day 1 of Cycle 1 pre-dose samples, was 7.45 ng/dL.

[1] = Abiraterone plasma exposure in monkeys, vehicle comparison; format: in vivo; settings: corn oil 70%, benzyl benzoate 20%, same concentration and dose
Description: In some embodiments, the abiraterone prodrug formulation can comprise a combination of benzyl alcohol and benzyl benzoate as cosolvents. In some embodiments, the benzyl alcohol can be present in an amount of about 0-20% (e.g., 0-15% or 0-10%, such as about 10%) of the solvent, and benzyl benzoate can be present in an amount of about 0-50% (e.g., 0-35% or 0-30%, such as about 20%) of the solvent, wherein the balance of the solvent can be any one or more of the pharmaceutically acceptable oil described herein, such as corn oil, castor oil, sesame oil, peanut oil, cottonseed oil, and/or Miglyol 812, etc.

SMILES: CCCCCCCCCC(=O)O[C@H]1CC[C@@]2(C)C(=CC[C@@H]3[C@@H]2CC[C@]2(C)C(c4cccnc4)=CC[C@@H]32)C1 [abiraterone decanoate]
- Serum Testosterone (% CFB) (serum testosterone; Cohort 1, 180 mg i.m., Study Day 1 (baseline)): 0%
- Serum Testosterone (% CFB) (serum testosterone; Cohort 1, 180 mg i.m., Study Day 2): −33%
- Serum Testosterone (% CFB) (serum testosterone; Cohort 1, 180 mg i.m., Study Day 3): −42%
- Serum Testosterone (% CFB) (serum testosterone; Cohort 1, 180 mg i.m., Study Day 5): −48%
- Serum Testosterone (% CFB) (serum testosterone; Cohort 1, 180 mg i.m., Study Day 7): −52%
- Serum Testosterone (% CFB) (serum testosterone; Cohort 1, 180 mg i.m., Study Day 10): −61%
- Serum Testosterone (% CFB) (serum testosterone; Cohort 1, 180 mg i.m., Study Day 14): −67%
- Serum Testosterone (% CFB) (serum testosterone; Cohort 1, 180 mg i.m., Study Day 21): −71%
- Serum Testosterone (% CFB) (serum testosterone; Cohort 1, 180 mg i.m., Study Day 28): −73%
- Serum Testosterone (% CFB) (serum testosterone; Cohort 1, 180 mg i.m., Study Day 42): −65%
- Serum Testosterone (% CFB) (serum testosterone; Cohort 1, 180 mg i.m., Study Day 56): −55%
- Serum Testosterone (% CFB) (serum testosterone; Cohort 1, 180 mg i.m., Study Day 70): −47%
- Serum Testosterone (% CFB) (serum testosterone; Cohort 2, 360 mg i.m., Study Day 1 (baseline)): 0%
- Serum Testosterone (% CFB) (serum testosterone; Cohort 2, 360 mg i.m., Study Day 2): −11%
- Serum Testosterone (% CFB) (serum testosterone; Cohort 2, 360 mg i.m., Study Day 3): 0%
- Serum Testosterone (% CFB) (serum testosterone; Cohort 2, 360 mg i.m., Study Day 5): −28%
- Serum Testosterone (% CFB) (serum testosterone; Cohort 2, 360 mg i.m., Study Day 7): −49%
- Serum Testosterone (% CFB) (serum testosterone; Cohort 2, 360 mg i.m., Study Day 10): −51%
- Serum Testosterone (% CFB) (serum testosterone; Cohort 2, 360 mg i.m., Study Day 14): −67%
- Serum Testosterone (% CFB) (serum testosterone; Cohort 2, 360 mg i.m., Study Day 21): −72%
- Serum Testosterone (% CFB) (serum testosterone; Cohort 2, 360 mg i.m., Study Day 28): −71%
- Serum Testosterone (% CFB) (serum testosterone; Cohort 2, 360 mg i.m., Study Day 42): −64%
- Serum Testosterone (% CFB) (serum testosterone; Cohort 2, 360 mg i.m., Study Day 56): −60%
- Serum Testosterone (% CFB) (serum testosterone; Cohort 2, 360 mg i.m., Study Day 70): −56%
- Serum Testosterone (% CFB) (serum testosterone; Cohort 2, 360 mg i.m., Study Day 77): −56%
- Serum Testosterone (% CFB) (serum testosterone; Cohort 2, 360 mg i.m., Study Day 84): −49%
- Serum Testosterone (% CFB) (serum testosterone; Cohort 2, 360 mg i.m., Study Day 112): −79%
- Serum Testosterone (% CFB) (serum testosterone; Cohort 2, 360 mg i.m., Study Day 140): −63%
- Serum Testosterone (% CFB) (serum testosterone; Cohort 2, 360 mg i.m., Study Day 168): −32%
- Serum Testosterone (% CFB) (serum testosterone; Cohort 2, 360 mg i.m., Study Day 196): −56%
- Serum Testosterone (% CFB) (serum testosterone; Cohort 3, 720 mg i.m., Study Day 1 (baseline)): 0%
- Serum Testosterone (% CFB) (serum testosterone; Cohort 3, 720 mg i.m., Study Day 2): −41%
- Serum Testosterone (% CFB) (serum testosterone; Cohort 3, 720 mg i.m., Study Day 3): −50%
- Serum Testosterone (% CFB) (serum testosterone; Cohort 3, 720 mg i.m., Study Day 5): −48%
- Serum Testosterone (% CFB) (serum testosterone; Cohort 3, 720 mg i.m., Study Day 7): −65%
- Serum Testosterone (% CFB) (serum testosterone; Cohort 3, 720 mg i.m., Study Day 10): −74%
- Serum Testosterone (% CFB) (serum testosterone; Cohort 3, 720 mg i.m., Study Day 14): −82%
- Serum Testosterone (% CFB) (serum testosterone; Cohort 3, 720 mg i.m., Study Day 21): −87%
- Serum Testosterone (% CFB) (serum testosterone; Cohort 3, 720 mg i.m., Study Day 28): −85%
- Serum Testosterone (% CFB) (serum testosterone; Cohort 3, 720 mg i.m., Study Day 42): −81%
- Serum Testosterone (% CFB) (serum testosterone; Cohort 3, 720 mg i.m., Study Day 56): −83%
- Serum Testosterone (% CFB) (serum testosterone; Cohort 3, 720 mg i.m., Study Day 70): −81%
- Serum Testosterone (% CFB) (serum testosterone; Cohort 3, 720 mg i.m., Study Day 77): −80%
- Serum Testosterone (% CFB) (serum testosterone; Cohort 3, 720 mg i.m., Study Day 84): −76%
- Serum Testosterone (% CFB) (serum testosterone; Cohort 3, 720 mg i.m., Study Day 112): −94%
- Serum Testosterone (% CFB) (serum testosterone; Cohort 3, 720 mg i.m., Study Day 140): −88%
- Serum Testosterone (% CFB) (serum testosterone; Cohort 3, 720 mg i.m., Study Day 168): −80%
- Serum Testosterone (% CFB) (serum testosterone; Cohort 3, 720 mg i.m., Study Day 196): −93%
- Serum Testosterone (% CFB) (serum testosterone; Cohort 4, 1260 mg i.m., Study Day 1 (baseline)): 0%
- Serum Testosterone (% CFB) (serum testosterone; Cohort 4, 1260 mg i.m., Study Day 2): −51%
- Serum Testosterone (% CFB) (serum testosterone; Cohort 4, 1260 mg i.m., Study Day 3): −65%
- Serum Testosterone (% CFB) (serum testosterone; Cohort 4, 1260 mg i.m., Study Day 5): −69%
- Serum Testosterone (% CFB) (serum testosterone; Cohort 4, 1260 mg i.m., Study Day 7): −79%
- Serum Testosterone (% CFB) (serum testosterone; Cohort 4, 1260 mg i.m., Study Day 10): −79%
- Serum Testosterone (% CFB) (serum testosterone; Cohort 4, 1260 mg i.m., Study Day 14): −80%
- Serum Testosterone (% CFB) (serum testosterone; Cohort 4, 1260 mg i.m., Study Day 21): −88%
- Serum Testosterone (% CFB) (serum testosterone; Cohort 4, 1260 mg i.m., Study Day 28): −89%
- Serum Testosterone (% CFB) (serum testosterone; Cohort 4, 1260 mg i.m., Study Day 42): −90%
- Serum Testosterone (% CFB) (serum testosterone; Cohort 4, 1260 mg i.m., Study Day 56): −89%
- Serum Testosterone (% CFB) (serum testosterone; Cohort 4, 1260 mg i.m., Study Day 70): −80%
- Serum Testosterone (% CFB) (serum testosterone; Cohort 4, 1260 mg i.m., Study Day 77): −87%
- Serum Testosterone (% CFB) (serum testosterone; Cohort 4, 1260 mg i.m., Study Day 84): −83%
- Serum Testosterone (% CFB) (serum testosterone; Cohort 4, 1260 mg i.m., Study Day 112): −93%
- Serum Testosterone (% CFB) (serum testosterone; Cohort 4, 1260 mg i.m., Study Day 140): −89%
- Serum Testosterone (% CFB) (serum testosterone; Cohort 4, 1260 mg i.m., Study Day 168): −86%
- Serum Testosterone (% CFB) (serum testosterone; Cohort 4, 1260 mg i.m., Study Day 196): −97%
- Serum Testosterone (% CFB) (serum testosterone; Cohort 5, 1800 mg i.m., Study Day 1 (baseline)): 0%
- Serum Testosterone (% CFB) (serum testosterone; Cohort 5, 1800 mg i.m., Study Day 2): −41%
- Serum Testosterone (% CFB) (serum testosterone; Cohort 5, 1800 mg i.m., Study Day 3): −46%
- Serum Testosterone (% CFB) (serum testosterone; Cohort 5, 1800 mg i.m., Study Day 5): −62%
- Serum Testosterone (% CFB) (serum testosterone; Cohort 5, 1800 mg i.m., Study Day 7): −76%
- Serum Testosterone (% CFB) (serum testosterone; Cohort 5, 1800 mg i.m., Study Day 10): −79%
- Serum Testosterone (% CFB) (serum testosterone; Cohort 5, 1800 mg i.m., Study Day 14): −85%
- Serum Testosterone (% CFB) (serum testosterone; Cohort 5, 1800 mg i.m., Study Day 21): −88%
- Serum Testosterone (% CFB) (serum testosterone; Cohort 5, 1800 mg i.m., Study Day 28): −88%
- Serum Testosterone (% CFB) (serum testosterone; Cohort 5, 1800 mg i.m., Study Day 42): −93%
- Serum Testosterone (% CFB) (serum testosterone; Cohort 5, 1800 mg i.m., Study Day 56): −79%
- Serum Testosterone (% CFB) (serum testosterone; Cohort 5, 1800 mg i.m., Study Day 70): −87%
- Serum Testosterone (% CFB) (serum testosterone; Cohort 5, 1800 mg i.m., Study Day 77): −88%
- Serum Testosterone (% CFB) (serum testosterone; Cohort 5, 1800 mg i.m., Study Day 84): −88%
- Serum Testosterone (% CFB) (serum testosterone; Cohort 5, 1800 mg i.m., Study Day 112): −83%
- Serum Testosterone (% CFB) (serum testosterone; Cohort 5, 1800 mg i.m., Study Day 140): −96%
- Serum Testosterone (% CFB) (serum testosterone; Cohort 5, 1800 mg i.m., Study Day 168): −95%
- Serum Testosterone (% CFB) (serum testosterone; Cohort 5, 1800 mg i.m., Study Day 196): −98%
- decline in testosterone (serum testosterone; Patient 1, cohort 1, 180 mg, treatment days 21-56): 59-61%
- androgen suppression (serum testosterone; Patient 2, cohort 2, 360 mg, progressed after Xtandi, FIG. 6): sustained androgen suppression
- serum testosterone reduction from baseline (serum testosterone; cohort 3 (720 mg)): 80%
- serum testosterone reduction from baseline (serum testosterone; cohort 4 (1260 mg)): 86%
- serum testosterone reduction from baseline (serum testosterone; cohort 5 (1800 mg)): up to 95%
- patients with a 90% reduction in testosterone levels compared to baseline or values reduced to ≤1 ng/dL (serum testosterone; patients dosed at 720 mg and above, day 28): 13 out of 16
- abiraterone plasma exposure versus corn oil 90% / benzyl alcohol 10% formulation [1]: much higher abiraterone plasma exposure

From patent US20250186463A1, “ABIRATERONE DECANOATE PRODRUGS AND USE IN THERAPY” (PROPELLA THERAPEUTICS, INC., priority 2022, published 2025)
